{"source": "patent US20040241766A1", "about": "“Carbamazepine assay” (priority 2003, published 2004)", "key": {"[1]": {"details": "humans, serum concentration; cited from earlier work"}, "[2]": {"experiment": "Serum CBZ concentration in CBZ-treated rats (competitive avidin assay vs HPLC with UV detection)", "format": "in vivo", "details": "rat serum, 3.75 g CBZ/kg diet for 68 days, Serum #1-#3", "method": "Biotinylated bovine serum albumin (BSA) was synthesized by mixing 50 mL of 10 g/L BSA in ice-cold 0.1 mol/L NaHCO3 (pH 7.5) with 5 mL of a 12 g/L N-hydroxysuccinimide ester (NHS-biotin) in dimethyl sulfoxide overnight at 4° C. The mixture was dialyzed for 48 h with gentle stirring at 4° C.\nA flat bottom 96-well microtiter plate (Nunc Maxisorp, Fisher Scientific, Pittsburgh, Pa.) was coated with 200 μL of a 1:2 dilution of biotinylated BSA in coating buffer (50 mmol/L bicarbonate, pH 9.0) and incubated at 4° C. for at least 1 h (up to 48 h).\nA 10 g/L stock of CBZ was made by dissolving CBZ in methanol and then this was diluted 1:2 in Hepes buffer (0.1 mol/L Hepes, 1 mol/L NaCl, pH 7.0) to make a concentration of 5 g/L. 5 μL of this stock was diluted in 295 μL serum (collected immediately after a rat had been killed by exsanguination and whole blood was allowed to clot 10 min before centrifugation at 10,000× g for 10 min, and serum recovered). […]\nThe coated flat bottom plate was washed three times with 0.05% (v/v) tween-20 and before the wells dried out, 100 μL of the contents of the U-bottom plate were added to the flat bottom plate and incubated for 45 min—up to 4 h. […] After 45 min, 50 μL of 2 mol/L H2SO4 was added to the wells and the absorbance was measured at 490-650 nm in a plate reader spectrophotometer (Molecular Devices, Sunnyvale, Calif.). […]"}, "avidin": {"molecular_target": "T1, avidin (Gallus gallus, UniProt P02701)", "T1 construct": "purchased Pierce Chemical Company", "T1 sequence (P02701 25-152)": "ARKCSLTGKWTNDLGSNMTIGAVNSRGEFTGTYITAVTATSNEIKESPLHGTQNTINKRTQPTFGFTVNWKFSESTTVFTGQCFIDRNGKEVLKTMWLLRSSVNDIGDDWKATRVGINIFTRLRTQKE", "experiment": "HABA assay: displacement of HABA from avidin", "format": "binding", "method": "In order to determine whether CBZ can bind to avidin, a solution of 10 mg/L CBZ dissolved in methanol was used in a HABA assay (Pierce Chemical Company, Pittsburgh, Pa.). When [2-(4′-hydroxyazobenzene) benzoic acid (HABA) is added in excess of avidin (Pierce Chemical Company, Pittsburgh, Pa.), an absorption at 500 nm is observed and a change in color occurs from yellow to red. This absorption is decreased proportionately when biotin is added since biotin displaces the HABA dye due to its higher affinity for avidin. The assay can be performed in a single cuvette by noting the A500 of the avidin-HABA solution before and after addition of the biotin-containing sample; the change in absorbance can then be related to the amount of biotin in the sample by using the extinction coefficient of the complex.\nThis change in absorbance is equivalent to 0.17 μmoles biotin-competing capacity of CBZ/ml reaction mixture. This amount was present according to a calculation equation described by the manufacturer."}}, "note": "Several values for one entry are separate records, joined by “and”; a condition that tells them apart may be missing. Equal values may be shown once."}
{"smiles": "NC(=O)N1c2ccccc2C=Cc2ccccc21", "note": "[CBZ, 5-carbamoyl-5H-dibenz[b,f]azepine]", "values": [{"measurement": "therapeutic range", "setting": "[1]", "value": "4 to 12", "unit": "mg/L"}, {"measurement": "serum CBZ concentration, HPLC", "setting": "[2]; HPLC with UV detection", "value": "4.7 mg/L and 3.3 mg/L"}, {"measurement": "serum CBZ concentration, Competitive Assay", "setting": "[2]; avidin-HRP/biotinylated BSA competitive assay", "value": "4.8 mg/L and 3.8 mg/L and 3.0 mg/L"}, {"measurement": "change in absorbance at 500 nm", "setting": "avidin; 10 mg/L CBZ in methanol added to avidin-HABA solution", "value": 0.5633}, {"measurement": "binding to avidin relative to HABA", "setting": "avidin; HABA displacement", "value": "binds more tightly to avidin than does HABA"}, {"measurement": "biotin-competing capacity of CBZ/ml reaction mixture", "setting": "avidin; calculated from change in absorbance by manufacturer's equation, 10 mg/L CBZ", "value": 0.17, "unit": "µmol"}]}
